Measured values reported in PMC12142043, “Cell-based high-content approach for SARS-CoV-2 neutralization identifies unique monoclonal antibodies and PI3K pathway inhibitors” (Frontiers in Cell and Developmental Biology, 2025).
Read-outs that look alike come from different tables or passages of the source.

Test system: SARS-CoV-2 (USA-WA1/2020) in Calu-3 cells
Format: cell-based
[1] = high dose (10 µM), Calu-3, 48 h
[2] = low dose (100 nM), Calu-3, 48 h

SMILES	dsRNA signal, AU High [1]	dsRNA signal, AU Low [2]	dsRNA signal, AU High	dsRNA signal, AU Low
Oc1cccc(-c2nc(N3CCOCC3)c3oc4ncccc4c3n2)c1 [PI-103]	0.0 AU	40731.1 AU	–	–
Fc1ccc2[nH]ccc2c1-c1nc(N2CCOCC2)c2sc(CN3CCN(CC4CC4)CC3)cc2n1 [PI-3065]	625.6 AU	44145.1 AU	–	–
Cc1ccc([N+](=O)[O-])cc1S(=O)(=O)N(C)/N=C/c1cnc2ccc(Br)cn12 [PIK-75]	6934.4 AU	3754.5 AU	–	–
FC(F)(F)c1ccc(CNc2ccc(Cc3c[nH]c4ncccc34)cn2)cc1 [PLX647]	24285.0 AU	52941.2 AU	–	–
CC(C)n1nc(-c2cc3cc(O)ccc3[nH]2)c2c(N)ncnc21 [PP242]	7321.2 AU	32614.7 AU	–	–
CC(C)(C)n1nc(-c2ccc(Cl)cc2)c2c(N)ncnc21 [PP 2 (AG 1879)]	53589.5 AU	40414.9 AU	–	–
CCOC(=O)c1ccc(N2NC(=O)/C(=C/c3ccc([N+](=O)[O-])o3)C2=O)cc1 [PYR-41]	41809.3 AU	6659.6 AU	–	–
COc1ccc(COc2cc3oc(=O)c4cc(C(C)O)ccc4c3cc2OC)cc1 (stereo not shown) [Palomid 529]	5778.6 AU	4358.2 AU	–	–
Cc1ccc(Nc2nccc(N(C)c3ccc4c(C)n(C)nc4c3)n2)cc1S(N)(=O)=O [Pazopanib (GW-786034)]	41143.8 AU	22671.3 AU	–	–
FC(F)(F)c1ccc(CNc2ccc(Cc3c[nH]c4ncc(Cl)cc34)cn2)cn1 [Pexidartinib (PLX3397)]	64762.3 AU	40586.0 AU	–	–
Oc1cc(O)cc(/C=C/c2ccc(O)c(O)c2)c1 [Piceatannol]	12025.1 AU	48262.2 AU	–	–
O=C(NC[C@H](O)CO)c1ccncc1Nc1ccc(I)cc1F [Pimasertib (AS-703026)]	11387.3 AU	3667.2 AU	–	–
O=C(O)C[C@H](O)C[C@H](O)/C=C/c1c(C2CC2)nc2ccccc2c1-c1ccc(F)cc1 [Pitavastatin Calcium]	16024.1 AU	23195.0 AU	–	–
O=C(O)C[C@H](O)C[C@H](O)/C=C/c1c(C2CC2)nc2ccccc2c1-c1ccc(F)cc1 [Pitavastatin]	8150.8 AU	10215.5 AU	–	–
CC1=CC(=O)C(C(C)C)=C/C1=N/OC(=O)c1ccccc1C [Poloxin]	3268.7 AU	59035.4 AU	–	–
C=CC(=O)N1CCC(Oc2cc3c(Nc4ccc(Cl)c(Cl)c4F)ncnc3cc2OC)CC1 [Poziotinib]	19439.7 AU	63934.7 AU	–	–
CC(C)[C@H](CO)Nc1nc(Nc2cccc(Cl)c2)c2ncn(C(C)C)c2n1 [Purvalanol A]	51443.1 AU	865.0 AU	–	–
CC(C)[C@H](CO)Nc1nc(Nc2ccc(C(=O)O)c(Cl)c2)c2ncn(C(C)C)c2n1 [Purvalanol B]	4137.6 AU	7805.6 AU	–	–
O=c1c(O)c(-c2ccc(O)c(O)c2)oc2cc(O)cc(O)c12 [Quercetin dihydrate]	25411.6 AU	6435.1 AU	–	–
CC(C)(C)c1cc(NC(=O)Nc2ccc(-c3cn4c(n3)sc3cc(OCCN5CCOCC5)ccc34)cc2)no1 [Quizartinib (AC220)]	4499.9 AU	17036.5 AU	–	–
COc1cc(Nc2ncc(F)c(Nc3ccc4c(n3)NC(=O)C(C)(C)O4)n2)cc(OC)c1OC [R406 (free base)]	42129.8 AU	55638.2 AU	–	–
COc1ccc(/C=C(\C#N)c2cccnc2)cc1OC [RG 13022]	36154.5 AU	2414.3 AU	–	–
O=C(NCc1cccc(O)c1)Nc1nc(-c2ccncc2)cs1 [RKI-1447]	1722.0 AU	7250.9 AU	–	–
CN1CCN(c2ccc(Nc3cc(-c4cccc(-n5ccc6cc(C7CC7)cc(F)c6c5=O)c4CO)cn(C)c3=O)nc2)CC1 [RN486]	3432.0 AU	25024.9 AU	–	–

SMILES	dsRNA signal, AU High [1]	dsRNA signal, AU Low [2]	dsRNA signal, AU High	dsRNA signal, AU Low
Cc1cn(-c2cc(NC(=O)c3ccc(C)c(Nc4nccc(-c5cnccn5)n4)c3)cc(C(F)(F)F)c2)cn1 [Radotinib(IY-5511)]	11726.8 AU	29413.0 AU	–	–
CO[C@H]1C[C@@H]2CC[C@@H](C)[C@@](O)(O2)C(=O)C(=O)N2CCCC[C@H]2C(=O)O[C@H]([C@H](C)C[C@@H]2CC[C@@H](O)[C@H](OC)C2)CC(=O)[C@H](C)/C=C(\C)[C@@H](O)[C@@H](OC)C(=O)[C@H](C)C[C@H](C)/C=C/C=C/C=C/1C [Rapamycin (Sirolimus)]	1745.1 AU	58744.6 AU	–	–
CNC(=O)c1cc(Oc2ccc(NC(=O)Nc3ccc(Cl)c(C(F)(F)F)c3)c(F)c2)ccn1.Cl [Regorafenib hydrochloride]	724.9 AU	22021.0 AU	–	–
CNC(=O)c1cc(Oc2ccc(NC(=O)Nc3ccc(Cl)c(C(F)(F)F)c3)c(F)c2)ccn1 [Regorafenib]	93.0 AU	63322.3 AU	–	–
Oc1ccc(/C=C/c2cc(O)cc(O)c2)cc1 [Resveratrol]	13503.5 AU	6902.6 AU	–	–
c1nc2nc(Nc3ccc(N4CCOCC4)cc3)nc(NC3CCCCC3)c2[nH]1 [Reversine]	–	–	27234.6	49415.3
CO[C@H]1C[C@@H]2CC[C@@H](C)[C@@](O)(O2)C(=O)C(=O)N2CCCC[C@H]2C(=O)O[C@H]([C@H](C)C[C@@H]2CC[C@@H](OP(C)(C)=O)[C@H](OC)C2)CC(=O)[C@H](C)/C=C(\C)[C@@H](O)[C@@H](OC)C(=O)[C@H](C)C[C@H](C)/C=C/C=C/C=C/1C [Ridaforolimus (Deforolimus, MK-8669)]	23072.2 AU	31512.5 AU	–	–
COc1cc(OC)c(/C=C/S(=O)(=O)Cc2ccc(OC)c(NCC(=O)O)c2)c(OC)c1 [Rigosertib (ON-01910,Estybon)]	14175.0 AU	4849.9 AU	–	–
O=C1NC(=NCc2cccs2)S/C1=C\c1ccc2ncccc2c1 [Ro 3306]	2807.1 AU	25048.4 AU	–	–
O=C(/C=C/c1ccc(O)c(O)c1)O[C@H](Cc1ccc(O)c(O)c1)C(=O)O [Rosmarinic acid]	3864.4 AU	42457.9 AU	–	–
C[C@@H]1COCCN1c1cc(=O)n2c(n1)N(Cc1cncc(Cl)c1)[C@H](C(F)(F)F)CC2 [SAR405]	1587.9 AU	23454.9 AU	–	–
CCn1c(N)c(C(=O)NC)c(=O)c2ccc(C#C[C@@](C)(O)COC)nc21 [SAR131675]	44218.5 AU	34484.3 AU	–	–
CN1C/C=C/CCOc2cccc(c2)-c2ccnc(n2)Nc2cccc(c2)C1 [SB1317]	1210.9 AU	26680.2 AU	–	–
Oc1ccc(-c2nc(-c3ccc(F)cc3)c(-c3ccncc3)[nH]2)cc1 [SB202190 (FHPI)]	29217.1 AU	9508.1 AU	–	–
Cc1cccc(-c2[nH]c(C(C)(C)C)nc2-c2ccc3nccnc3c2)n1 [SB525334]	34680.3 AU	27941.4 AU	–	–
Cn1cc(C2=C(c3ccc(Cl)cc3Cl)C(=O)NC2=O)c2ccccc21 [SB 216763]	596.7 AU	53506.5 AU	–	–
COc1nccc(-c2c(-c3ccc(F)cc3)ncn2C2CCC(O)CC2)n1 (stereo not shown) [SB 239063]	16458.2 AU	15855.6 AU	–	–
NC(=O)c1ccc(-c2nc(-c3ccc4c(c3)OCO4)c(-c3ccccn3)[nH]2)cc1 [SB 431542]	540.4 AU	12958.4 AU	–	–
O=C(Nc1ccc2[nH]nc(-c3ccncc3)c2c1)[C@@H]1CCN(CC(=O)N2CCN(c3ccc(-c4ncccn4)cc3)CC2)C1 [SCH772984]	21169.8 AU	17905.7 AU	–	–
CC(C)(C)C(=O)Nc1ccc2c(c1)C(=O)C(=O)c1ccccc1-2 [SF1670]	30745.4 AU	12301.2 AU	–	–
CN1CCC(CNc2ccc3ncc(-c4cccc(OC(F)(F)F)c4)n3n2)CC1 [SGI-1776 free base]	1583.1 AU	29976.5 AU	–	–
Cn1cc(-c2ccc3nnc(Sc4ccc5ncccc5c4)n3n2)cn1 [SGX-523]	18702.9 AU	25732.4 AU	–	–
Oc1ccc(Nc2nc(-c3ccc(Cl)cc3)cs2)cc1 [SKI II]	31334.0 AU	21341.0 AU	–	–
